In ChEMBL document CHEMBL5370570, “HIV-1 Integrase Inhibitor, Dihydroobionin B, and the Investigation of Its Extraordinary Specific Rotation” (J Nat Prod, 2023):
Active and inactive are the calls of the source. No cut-off for these calls is given here.

Experiments:
[1] = Cytotoxicity against human HEK293T cells assessed as reduction in cell viability incubated for 48 hrs by WST assay; assay type: toxicity, cell-based, HEK-293T; settings: read-out: LC50
Bipolaris oryzae = assay: Antifungal activity against Bipolaris oryzae at 50 ug assessed as zone of inhibition incubated after 5 days at 25 degreeC by paper disk method; assay type: functional; settings: for zone of inhibition at 50 µg/disc: 120 h, time 5 day, read-out: IZ
[2] = molecular target: Human immunodeficiency virus type 1 integrase (Human immunodeficiency virus 1, UniProt Q7ZJM1); assay: Inhibition of HIV-1 integrase expressed in HEK293T co-transfected with CS-II Luci vector incubated for 48 hrs by Bright-Glo luciferase assay; assay type: cell-based
Human immunodeficiency virus type 1 integrase, sequence (Q7ZJM1 whole entry): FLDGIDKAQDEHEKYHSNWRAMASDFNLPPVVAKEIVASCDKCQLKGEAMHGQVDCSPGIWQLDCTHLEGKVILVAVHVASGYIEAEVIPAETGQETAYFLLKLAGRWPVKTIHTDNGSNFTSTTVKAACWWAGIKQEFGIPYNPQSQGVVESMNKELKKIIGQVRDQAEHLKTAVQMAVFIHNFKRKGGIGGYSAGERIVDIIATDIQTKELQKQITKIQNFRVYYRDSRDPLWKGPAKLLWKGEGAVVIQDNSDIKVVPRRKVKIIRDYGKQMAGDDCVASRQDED

| SMILES | CC50 at 48 h [1] [µM] | inhibition zone (IZ) (Bipolaris oryzae; dose 50.0 µg, time 5.0 day) | IC50 [2] [µM] | zone of inhibition at 50 µg/disc (Bipolaris oryzae) [mm] |
| --- | --- | --- | --- | --- |
| CCCCCCC[C@H]1Cc2cc3c(c(O)c2CO1)C(=O)C(=O)C(OC)=C3 | > 250 | inactive | 0.44 |  |
| CCCC/C=C/c1c(OC)cc(=O)oc1C |  |  | 250 | 12 |
| CCCCCCc1c(OC)cc(=O)oc1C |  |  | 15 | 12 |
| CCCCCc1cc(O)c(C)c(O)c1C=O |  |  | 13 | 12 |
